Measured values taken from article PMC12155888, “Design, Synthesis, and Antitumor Biological Evaluation of Galaxamide and Its Analogs” (Molecules, 2025).
Where “and” joins values, the source holds several entries; their conditions need not be identical. Identical values can stand only once. Like-named read-outs stand apart in the source and are kept apart here. Where a SMILES comes first, the peptide text is derived from it. [ ]: non-standard residue; d: D form. dChg = N[C@@H](C(=O)O)C1CCCCC1; dPhg = N[C@@H](C(=O)O)c1ccccc1; NMeL = CN[C@@H](CC(C)C)C(=O)O; dNMeL = CN[C@H](CC(C)C)C(=O)O

How the values were obtained:
A549 = type: cell-based, human
Description: (§1) Since the antitumor activity of natural galaxamide is good, we are interested in the antitumor potential of the obtained new analogs. To examine the anticancer activities of galaxamide and its analogs, two different human cancer cell lines, human non-small-cell lung cancer cells (A549) and human chronic myelogenous leukemia (K562), and one normal human cell line, human immortal embryonic kidney cells (293T), were selected for the in vitro cell models. […] The synthetic galaxamide (Gala01) was also tested as the standard. […] It was also found […] the best selectivity and highest safety and is thus worthy of further development for anticancer drugs for K562. A549, K562, and 293T cells were purchased from the Cell Resource Center of the Institute of Basic Medicine, Chinese Academy of Medical Sciences. Both A549 cells and K562 cells were cultured in RPMI (full name: Roswell Park Memorial Institute) 1640 medium containing 10% FBS (full name: fetal bovine serum, product number: C04001-500, Vivacell, Shanghai, China) and 1% p/s (full name: penicillin-streptomycin, product number: 15140122, Gbico, Waltham, MA, USA) for culture. The 293T cells were all cultured in DMEM (full name: Dulbecco's Modified Eagle Medium; cat. no.: C3113-0500, Vivacell, ShanghaiChina; containing 10% FBS and 1% p/s) for cultivation. […] Multiple types of cells were seeded into 96-well plates and treated with different concentrations of […]26 for 48 h after they returned to normal. Then, the relative activity of the cells was detected according to the instructions of the CCK-8 kit (item number: MA0218, Meilunbio, Dalian, China) and analyzed and calculated using GraphPad Prism 8.0.1 software.

K562 = type: cell-based, human
Protocol: To examine the anticancer activities of galaxamide and its analogs, two different human cancer cell lines, human non-small-cell lung cancer cells (A549) and human chronic myelogenous leukemia (K562), and one normal human cell line, human immortal embryonic kidney cells (293T), were selected for the in vitro cell models. […] The synthetic galaxamide (Gala01) was also tested as the standard. […] A549, K562, and 293T cells were purchased from the Cell Resource Center of the Institute of Basic Medicine, Chinese Academy of Medical Sciences. Both A549 cells and K562 cells were cultured in RPMI (full name: Roswell Park Memorial Institute) 1640 medium containing 10% FBS (full name: fetal bovine serum, product number: C04001-500, Vivacell, Shanghai, China) and 1% p/s (full name: penicillin-streptomycin, product number: 15140122, Gbico, Waltham, MA, USA) for culture. The 293T cells were all cultured in DMEM (full name: Dulbecco's Modified Eagle Medium; cat. no.: C3113-0500, Vivacell, ShanghaiChina; containing 10% FBS and 1% p/s) for cultivation. […] Multiple types of cells were seeded into 96-well plates and treated with different concentrations of […]26 for 48 h after they returned to normal. Then, the relative activity of the cells was detected according to the instructions of the CCK-8 kit (item number: MA0218, Meilunbio, Dalian, China) and analyzed and calculated using GraphPad Prism 8.0.1 software.

293T = type: cell-based, human; settings: 48 h
Description: as §1

[1] = amide bond; 15-membered ring; PyBOP/DMAP; MeCN; 4.3 mM
[2] = human non-small-cell lung cancer cells A549, 48 h, CCK-8, unit given in the text, not in Table 2, read-out: IC50 A549
[3] = human chronic myelogenous leukemia K562, 48 h, CCK-8, unit given in the text, not in Table 2, read-out: IC50 K562

Row | IC50 (A549; 48 h) | IC50 (K562; 48 h) | Compound | ring closure, isolated yield [1] | also measured
1 |  |  | CC(C)C[C@@H]1NC(=O)[C@H](CC(C)C)N(C)C(=O)[C@H](CC(C)C)NC(=O)[C@H](CC(C)C)N(C)C(=O)[C@@H](CC(C)C)NC1=O [Gala02, Cyclo(Me-L-Leu-L-Leu-D-Leu-Me-L-Leu-L-Leu)] (cyclo(L[NMeL]L[dL][NMeL])) |  | IC50 (A549; [2]): > 20 µM; IC50 (K562; [3]): 8.6 µM
2 |  |  | CC(C)C[C@@H]1NC(=O)[C@@H](CC(C)C)N(C)C(=O)[C@H](CC(C)C)NC(=O)[C@@H](CC(C)C)N(C)C(=O)[C@H](CC(C)C)NC1=O [Gala03, Cyclo(Me-D-Leu-L-Leu-L-Leu-Me-D-Leu-L-Leu)] (cyclo(LL[dNMeL]L[dNMeL])) |  | IC50 (A549; [2]): > 20 µM; IC50 (K562; [3]): > 80 µM
3 |  |  | CC(C)C[C@@H]1NC(=O)[C@@H](CC(C)C)N(C)C(=O)[C@H](CC(C)C)NC(=O)[C@@H](CC(C)C)N(C)C(=O)[C@@H](CC(C)C)NC1=O [Gala04, Cyclo(Me-D-Leu-L-Leu-D-Leu-Me-D-Leu-L-Leu)] (cyclo(L[dL][dNMeL]L[dNMeL])) |  | IC50 (A549; [2]): 19 µM; IC50 (293T; normal human embryonic kidney cells 293T, CCK-8, NA = not determined due to low inhibitory activity, read-out: IC50 293T): 16.3 µM; IC50 (K562; [3]): 4.19 µM and 4.2 µM
4 |  |  | CC(C)C[C@@H]1NC(=O)[C@@H](CC(C)C)NC(=O)[C@H](CC(C)C)N(C)C(=O)[C@@H](CC(C)C)NC(=O)[C@H](CC(C)C)N(C)C1=O [Gala05, Cyclo(Me-L-Leu-D-Leu-L-Leu-Me-L-Leu-D-Leu)] (cyclo(L[NMeL][dL][NMeL][dL])) |  | IC50 (A549; [2]): > 20 µM; IC50 (K562; [3]): 10.2 µM
5 |  |  | CC(C)C[C@H]1NC(=O)[C@H](CC(C)C)N(C)C(=O)[C@@H](CC(C)C)NC(=O)[C@H](CC(C)C)N(C)C(=O)[C@@H](CC(C)C)NC1=O [Gala06, Cyclo(Me-L-Leu-D-Leu-D-Leu-Me-L-Leu-D-Leu)] (cyclo([NMeL][dL][NMeL][dL][dL])) |  | IC50 (A549; [2]): > 20 µM; IC50 (K562; [3]): 28.8 µM
6 |  |  | CC(C)C[C@@H]1NC(=O)[C@@H](CC(C)C)NC(=O)[C@@H](CC(C)C)N(C)C(=O)[C@@H](CC(C)C)NC(=O)[C@@H](CC(C)C)N(C)C1=O [Gala07, Cyclo(Me-D-Leu-D-Leu-L-Leu-Me-D-Leu-D-Leu)] (cyclo(L[dNMeL][dL][dNMeL][dL])) |  | IC50 (A549; [2]): > 20 µM; IC50 (K562; [3]): > 80 µM
7 | > 20 µM | 14.9 µM | CC(C)C[C@@H]1NC(=O)[C@H](CC(C)C)N(C)C(=O)[C@H](CC(C)C)NC(=O)[C@H](CC(C)C)N(C)C(=O)[C@@H](Cc2ccccc2)NC1=O [Gala09, Cyclo(Me-L-Leu-L-Leu-D-Phe-Me-L-Leu-L-Leu)] |  | 
8 | > 20 µM | 27.2 µM | CC(C)C[C@@H]1NC(=O)[C@H](CC(C)C)N(C)C(=O)[C@H](CC(C)C)NC(=O)[C@H](CC(C)C)N(C)C(=O)CNC1=O [Gala10, Cyclo(Me-L-Leu-L-Leu-Gly-Me-L-Leu-L-Leu)] (cyclo([NMeL]LG[NMeL]L)) |  | 
9 |  | 33.8 µM | CC(C)C[C@@H]1NC(=O)[C@H](CC(C)C)N(C)C(=O)[C@H](CC(C)C)NC(=O)[C@H](CC(C)C)N(C)C(=O)[C@@H](C)NC1=O [Gala11, Cyclo(Me-L-Leu-L-Leu-D-Ala-Me-L-Leu-L-Leu)] (cyclo([NMeL]L[dA][NMeL]L)) |  | IC50 (293T): 13.3 µM
10 |  | 61.8 µM | COC[C@H]1NC(=O)[C@H](CC(C)C)NC(=O)[C@H](CC(C)C)N(C)C(=O)[C@H](CC(C)C)NC(=O)[C@H](CC(C)C)N(C)C1=O [Gala12, Cyclo(Me-L-Leu-L-Leu-O-Me-D-Ser-Me-L-Leu-L-Leu)] (cyclo(L[NMeL]L[dS](Me)[NMeL])) |  | IC50 (293T): 14.1 µM
11 | > 20 µM | > 80 µM | COc1ccc(C[C@H]2NC(=O)[C@H](CC(C)C)NC(=O)[C@H](CC(C)C)N(C)C(=O)[C@H](CC(C)C)NC(=O)[C@H](CC(C)C)N(C)C2=O)cc1 [Gala13, Cyclo(Me-L-Leu-L-Leu-O-Tyr-Me-L-Leu-L-Leu)] (cyclo(L[NMeL]L[dY](Me)[NMeL])) |  | 
12 | > 20 µM | 13 µM | CC(C)C[C@@H]1NC(=O)[C@H](CC(C)C)N(C)C(=O)[C@H](CC(C)C)NC(=O)[C@H](CC(C)C)N(C)C(=O)[C@@H](Cc2cccc(F)c2)NC1=O [Gala15, Cyclo(Me-L-Leu-L-Leu-3-Flu-D-Phe-Me-L-Leu-L-Leu)] |  | 
13 | > 20 µM | > 80 µM | Cc1ccccc1C[C@H]1NC(=O)[C@H](CC(C)C)NC(=O)[C@H](CC(C)C)N(C)C(=O)[C@H](CC(C)C)NC(=O)[C@H](CC(C)C)N(C)C1=O [Gala16, Cyclo(Me-L-Leu-L-Leu-2-Me-D-Phe-Me-L-Leu-L-Leu)] |  | 
14 | > 20 µM | 77.7 µM | CC(C)C[C@@H]1NC(=O)[C@H](CC(C)C)N(C)C(=O)[C@H](CC(C)C)NC(=O)[C@H](CC(C)C)N(C)C(=O)[C@@H](Cc2ccc(Cl)cc2)NC1=O [Gala17, Cyclo(Me-L-Leu-L-Leu-4-Chl-D-Phe-Me-L-Leu-L-Leu)] |  | 
15 |  | 24.2 µM | CC(C)C[C@@H]1NC(=O)[C@H](CC(C)C)N(C)C(=O)[C@H](CC(C)C)NC(=O)[C@H](CC(C)C)N(C)C(=O)[C@@H](Cc2ccc(Br)cc2)NC1=O [Gala18, Cyclo(Me-L-Leu-L-Leu-4-Bro-D-Phe-Me-L-Leu-L-Leu)] |  | IC50 (293T): 14.1 µM
16 | > 20 µM | 75.2 µM | CC(C)C[C@@H]1NC(=O)[C@H](CC(C)C)N(C)C(=O)[C@H](CC(C)C)NC(=O)[C@H](CC(C)C)N(C)C(=O)[C@@H](C2CCCCC2)NC1=O [Gala19, Cyclo(Me-L-Leu-L-Leu-D-cyclohexyl-Gly-Me-L-Leu-L-Leu)] (cyclo(L[NMeL]L[dChg][NMeL])) |  | 

Row | IC50 (A549; 48 h) | IC50 (K562; 48 h) | Compound | ring closure, isolated yield [1] | also measured
17 | > 20 µM | > 80 µM | CC(C)C[C@@H]1NC(=O)[C@H](CC(C)C)N(C)C(=O)[C@H](CC(C)C)NC(=O)[C@H](CC(C)C)N(C)C(=O)[C@@H](c2ccccc2)NC1=O [Gala20, Cyclo(Me-L-Leu-L-Leu-D-phenyl-Gly-Me-L-Leu-L-Leu)] (cyclo(L[NMeL]L[dPhg][NMeL])) |  | 
18 | > 20 µM | 49.3 µM | CC(C)C[C@@H]1NC(=O)[C@H](CC(C)C)N(C)C(=O)[C@H](CC(C)C)NC(=O)[C@H](CC(C)C)N(C)C(=O)[C@@H](C(C)C)NC1=O [Gala21, Cyclo(Me-L-Leu-L-Leu-D-Val-Me-L-Leu-L-Leu)] (cyclo([NMeL]L[dV][NMeL]L)) |  | 
19 |  | 8.5 µM | CSCC[C@H]1NC(=O)[C@H](CC(C)C)NC(=O)[C@H](CC(C)C)N(C)C(=O)[C@H](CC(C)C)NC(=O)[C@H](CC(C)C)N(C)C1=O [Gala22, Cyclo(Me-L-Leu-L-Leu-D-Met-Me-L-Leu-L-Leu)] (cyclo(L[NMeL]L[dM][NMeL])) |  | IC50 (293T): 12.9 µM
20 | > 20 µM | 6.9 µM | Cc1cccc(C[C@H]2NC(=O)[C@H](CC(C)C)NC(=O)[C@H](CC(C)C)N(C)C(=O)[C@H](CC(C)C)NC(=O)[C@H](CC(C)C)N(C)C2=O)c1 [Gala23, Cyclo(Me-L-Leu-L-Leu-3-Me-D-Phe-Me-L-Leu-L-Leu)] |  | 
21 |  |  | Cyclo(Me-L-Leu-L-Leu-D-Leu-Me-L-Leu-L-Leu) | 45% | 
22 |  |  | Cyclo(Me-L-Leu-L-Leu-D-Met-Me-L-Leu-L-Leu) | 52% | 
23 |  |  | Cyclo(Me-L-Leu-L-Leu-D-Phe-Me-L-Leu-L-Leu) | 51% | 
24 |  |  | Cyclo(Me-L-Leu-L-Leu-D-Pro-Me-L-Leu-L-Leu) | 51% | 
25 |  |  | Cyclo(Me-L-Leu-L-Leu-D-Val-Me-L-Leu-L-Leu) | 50% | 
26 |  |  | Cyclo(Me-L-Leu-L-Leu-D-cyclohexyl-Gly-Me-L-Leu-L-Leu) | 51% | 
27 |  |  | Cyclo(Me-L-Leu-L-Leu-D-phenyl-Gly-Me-L-Leu-L-Leu) | 51% | 
28 |  |  | Cyclo(Me-L-Leu-L-Leu-Gly-Me-L-Leu-L-Leu) | 51% | 
29 |  |  | Cyclo(Me-L-Leu-L-Leu-Methylester-D-Asp-Me-L-Leu-L-Leu) | 52% | 
30 |  |  | Cyclo(Me-L-Leu-L-Leu-O-Me-D-Ser-Me-L-Leu-L-Leu) | 52% | 
31 |  |  | Cyclo(Me-L-Leu-L-Leu-O-Tyr-Me-L-Leu-L-Leu) | 52% | 
